The values below come from US20240336559A1, “ANTI-FUNGALS COMPOUNDS TARGETING THE SYNTHESIS OF FUNGAL SPHINGOLIPIDS” (The Research Foundation for the State University of New York, priority 2021, published 2024).

One may read the MIC80 as an inhibitory concentration at the 80% level, which refers to growth in some studies and to a panel of isolates in others. The term melting point denotes the temperature of the solid-liquid transition.

Series [1] has as its system synthesis of sphingolipid GlcCer in C. neoformans. To be noted: in words, 'It was known'; cited from earlier work.
The next series deals with C. albicans. In words: Antifungal activity assay (MIC80), C. albicans. It is filed as cell-based. To be noted: Candida albicans; lowest concentration inhibiting 80% of growth; YNB pH 7.0, 37° C., 5% CO2, 24 to 72 h. On the procedure:
(§1) MICs were determined following the methods of the Clinical and Laboratory Standards Institutes (CLSI) with modifications. Yeast nitrogen base (YNB) medium without amino acid (pH 7.0, 2% glucose) buffered with (4-(2-hydroxyethyl)-1-piperazineethanesulfonic acid) (HEPES) was used for MIC studies in C. neoformans. YNB medium without ammonium sulfate, without amino acid and 1% asparagine (pH 7.0, 2% glucose) was used for MIC studies in Candida strains. RPMI medium (pH 7.0, 2% glucose) was used for MIC studies in A. fumigatus. […] The compounds were serially diluted from 32 to 0.03 μg/mL, in a 96-well plate. The inoculum was prepared as described in the CLSI protocol M27A3 guidelines. The plates were incubated at 37° C. with 5% CO2 for 24 to 72 h and the optical density was measure at 450 nm. The MICs were determined as the lowest concentration of the compound that inhibited 80% of growth compared to the control.

A further series concerns C. neoformans. Description: Antifungal activity assay (MIC80), C. neoformans. It counts as cell-based. The note with it: Cryptococcus neoformans. The protocol:
as §1
MICs was determined following the methods of the Clinical and Laboratory Standards Institutes (CLSI) with modifications. Yeast Nitrogen Base (YNB) medium (pH 7.0, 0.2% glucose) buffered with HEPES was used for MIC studies. […] The compound was serially diluted from 16 to 0.03 μg/ml, in a 96-well plate. The inoculum was prepared as described in the CLSI protocol M27A3 guidelines. The plates were incubated at 37° C. with 5% CO2 for 24 to 72 h and the optical density was measure at 450 nm. The MICs was determined as the lowest concentration of the compound that inhibited 80% of growth compared to the control.

Another series has as its system A. fumigatus. Description: Antifungal activity assay (MIC80), A. fumigatus. It is filed as cell-based. The note with it: Aspergillus fumigatus; lowest concentration inhibiting 80% of growth; RPMI pH 7.0, 37° C., 5% CO2, 24 to 72 h. On the procedure:
as §1

Where [2] appears, read: lowest concentration inhibiting 80% of growth, YNB pH 7.0 HEPES, 37° C., 5% CO2, 24 to 72 h, read-out: MIC80 C. neoformans.

In brackets after ≈: the same amount, converted by molar mass. Like-named read-outs stand apart in the source and are kept apart here.

Regarding `Cc1ccccc1C(=O)N/N=C/c1ccc(O)c(Br)c1` [BHBM], in series [1], the “antifungal activities by inhibiting the synthesis of sphingolipid GlcCer” value is “potent antifungal activities”.

Take `C#Cc1ccc(O)c(/C=N/NC(=O)c2ccc(Br)cc2Br)c1` [SB-AF-08-23, 2,4-Dibromo-N′-(5-ethynyl-2-hydroxybenzylidene)benzohydrazide]: the MIC80 against C. albicans is ≤ 0.01 µg/mL; in the series on C. neoformans (setting [2]), 0.03 µg/mL (≈ 0.0711 µM); against A. fumigatus, 2 µg/mL (≈ 4.74 µM).

Take `C#Cc1cccc(O)c1/C=N/NC(=O)c1ccc(Br)cc1Br` [SB-AF-08-29, 2,4-Dibromo-N′-(2-ethynyl-6-hydroxybenzylidene)benzohydrazide]: the MIC80 was 0.5 µg/mL (≈ 1.18 µM) against C. albicans, 0.031 µg/mL (≈ 0.0734 µM) in the series on C. neoformans (setting [2]) and > 32 µg/mL in the series with A. fumigatus.

With `C#Cc1ccc(O)c(/C=N/NC(=O)c2ccc(Br)cc2)c1` [SB-AF-10-23, 4-Bromo-N′-(5-ethynyl-2-hydroxybenzylidene) benzohydrazide], the results for the MIC80 with C. albicans, with C. neoformans (setting [2]) and in the series with A. fumigatus were 0.06 µg/mL (≈ 0.175 µM), 0.007 µg/mL (≈ 0.0204 µM) and 2 µg/mL (≈ 5.83 µM), respectively.

`C#Cc1ccc(/C=N/NC(=O)c2ccc(Br)cc2)c(O)c1` [SB-AF-10-27, 4-Bromo-N′-(4-ethynyl-2-hydroxybenzylidene)benzohydrazide]: the MIC80 against C. albicans was 4 µg/mL (≈ 11.7 µM); in the series with C. neoformans (setting [2]), 0.03 µg/mL (≈ 0.0874 µM); with A. fumigatus, > 16 µg/mL.

Regarding `C#Cc1cccc(/C=N/NC(=O)c2ccc(Br)cc2)c1O` [SB-AF-10-28, 4-Bromo-N′-(3-ethynyl-2-hydroxybenzylidene)benzohydrazide], the MIC80 came to 2 µg/mL (≈ 5.83 µM) in the series with C. albicans, 0.007 µg/mL (≈ 0.0204 µM) in the series with C. neoformans (setting [2]) and 4 µg/mL (≈ 11.7 µM) against A. fumigatus.

For `C#Cc1cccc(O)c1/C=N/NC(=O)c1ccc(Br)cc1` [SB-AF-10-29, 4-Bromo-N-(2-ethynyl-6-hydroxybenzylidene)benzohydrazide], the MIC80 is 8 µg/mL (≈ 23.3 µM) in the series with C. albicans; 0.125 µg/mL (≈ 0.364 µM) with C. neoformans (pH 7, read-out: MIC80 C. neoformans); > 32 µg/mL in the series with A. fumigatus.

For the compound `C#Cc1ccc(O)c(/C=N/NC(=O)c2cc(Br)cc(Br)c2O)c1` [SB-AF-12-23, 2-Hydroxy-3,5-dibromo-N-(5-ethynyl-2-hydroxybenzylidene)benzohydrazide], the MIC80 stood at 0.12 µg/mL (≈ 0.274 µM) in the series on C. albicans, 0.03 µg/mL (≈ 0.0685 µM) in the series with C. neoformans (setting [2]) and 4 µg/mL (≈ 9.13 µM) in the series on A. fumigatus.

Regarding `C#Cc1ccc(/C=N/NC(=O)c2cc(Br)cc(Br)c2O)c(O)c1` [SB-AF-12-27, 3,5-Dibromo-N′-(4-ethynyl-2-hydroxybenzylidene)-2-hydroxybenzohydrazide], the MIC80 is 2 µg/mL (≈ 4.57 µM) in the series on C. albicans, 0.03 µg/mL (≈ 0.0685 µM) in the series on C. neoformans (setting [2]) and > 16 µg/mL against A. fumigatus.

In the case of `C#Cc1ccc(O)c(/C=N/NC(=O)c2ccc(Br)c(Br)c2)c1` [SB-AF-13-23, 3,4-Dibromo-N′-(5-ethynyl-2-hydroxybenzylidene)benzohydrazide], the MIC80 turned out to be 0.5 µg/mL (≈ 1.18 µM) against C. albicans, 0.06 µg/mL (≈ 0.142 µM) with C. neoformans (setting [2]) and 2 µg/mL (≈ 4.74 µM) in the series with A. fumigatus.

As to `C#Cc1ccc(/C=N/NC(=O)c2ccc(Br)c(Br)c2)c(O)c1` [SB-AF-13-27, 3,4-Dibromo-N′-(4-ethynyl-2-hydroxybenzylidene)benzohydrazide], the MIC80 against C. albicans is 8 µg/mL (≈ 19 µM); in the series on C. neoformans (setting [2]), 0.007 µg/mL (≈ 0.0166 µM); against A. fumigatus it was > 16 µg/mL.

As to `C#Cc1cccc(/C=N/NC(=O)c2ccc(Br)c(Br)c2)c1O` [SB-AF-13-28, 3,4-Dibromo-N′-(3-ethynyl-2-hydroxybenzylidene)benzohydrazide], the results for the MIC80 with C. albicans, with C. neoformans (setting [2]) and in the series on A. fumigatus were 4 µg/mL (≈ 9.48 µM), 0.015 µg/mL (≈ 0.0355 µM) and 1 µg/mL (≈ 2.37 µM), respectively.

In the case of `C#Cc1cccc(O)c1/C=N/NC(=O)c1ccc(Br)c(Br)c1` [SB-AF-13-29, 3,4-Dibromo-N′-(2-ethynyl-6-hydroxybenzylidene)benzohydrazide], the MIC80 was determined as 16 µg/mL (≈ 37.9 µM) in the series on C. albicans, 0.06 µg/mL (≈ 0.142 µM) with C. neoformans (setting [2]) and 8 µg/mL (≈ 19 µM) against A. fumigatus.

`C#Cc1ccc(O)c(/C=N/NC(=O)c2ccc(OC(F)(F)F)cc2F)c1` [SB-AF-25-23, 2-Fluoro-4-(trifluoromethoxy)-N-(5-ethynyl-2-hydroxybenzylidene)benzohydrazide]: the MIC80 in the series with C. neoformans (setting [2]) was 4 µg/mL (≈ 10.9 µM).

As to `C#Cc1ccc(C(=O)N/N=C/c2ccc(C#C)cc2O)cc1` [SB-AF-36-27, 4-Ethynyl-N′-(4-ethynyl-2-hydroxybenzylidene)benzohydrazide], the MIC80 against C. albicans was 16 µg/mL (≈ 55.5 µM); with C. neoformans (setting [2]), 0.007 µg/mL (≈ 0.0243 µM); in the series with A. fumigatus, > 16 µg/mL.

For the compound `COCc1ccc(C(=O)N/N=C/c2ccc(Br)cc2O)cc1` [SB-AF-39-13, 4-Methoxymethyl-N′-(4-bromo-2-hydroxybenzylidene)benzohydrazide], the melting point lay in the range of 198 to 199 °C.

Turning to `COCc1ccc(C(=O)N/N=C/c2cc(Br)ccc2O)cc1` [SB-AF-39-15, 4-Methoxymethyl-N′-(5-bromo-2-hydroxybenzylidene)benzohydrazide], the melting point lay in the range of 188 to 189 °C.

`COCc1ccc(C(=O)N/N=C/c2cccc(Br)c2O)cc1` [SB-AF-39-22, 4-Methoxymethyl-N′-(3-bromo-2-hydroxybenzylidene)benzohydrazide] had a melting point of 187 to 188 °C.

Turning to `C#Cc1ccc(O)c(/C=N/NC(=O)c2ccc(COC)cc2)c1` [SB-AF-39-23, 4-Methoxymethyl-N′-(5-ethynyl-2-hydroxybenzylidene)benzohydrazide], the MIC80 with C. neoformans (setting [2]) was determined as 0.25 µg/mL (≈ 0.811 µM).

For `CCOCc1ccc(C(=O)N/N=C/c2cc(Br)cc(Br)c2O)cc1` [SB-AF-40-17, 4-Ethoxymethyl-N′-(3,5-dibromo-2-hydroxybenzylidene)benzohydrazide], the melting point lay in the range of 205 to 207 °C.

For the compound `CCOCc1ccc(C(=O)N/N=C/c2cccc(Br)c2O)cc1` [SB-AF-40-22, 4-Ethoxymethyl-N′-(3-bromo-2-hydroxybenzylidene)benzohydrazide], the melting point lay within 176 to 177 °C.

Take `C#Cc1ccc(/C=N/NC(=O)c2ccc(COCC)cc2)c(O)c1` [SB-AF-40-27, 4-(Ethoxymethyl)-N′-(4-ethynyl-2-hydroxybenzylidene)benzohydrazide]: the values for the MIC80 with C. albicans and in the series on C. neoformans (setting [2]) were 8 µg/mL (≈ 24.8 µM) and 0.031 µg/mL (≈ 0.0962 µM), respectively.

In turn, `CC(C)OCc1ccc(C(=O)N/N=C/c2ccc(Br)cc2O)cc1` [SB-AF-41-13, 4-Isopropoxymethyl-N′-(4-bromo-2-hydroxybenzylidene)benzohydrazide] registered a melting point of 193 to 195 °C.

For `CC(C)OCc1ccc(C(=O)N/N=C/c2cc(Br)ccc2O)cc1` [SB-AF-41-15, 4-Isopropoxymethyl-N′-(5-bromo-2-hydroxybenzylidene)benzohydrazide], the melting point was in the range of 179 to 181 °C.

Turning to `CC(C)OCc1ccc(C(=O)N/N=C/c2cc(Br)cc(Br)c2O)cc1` [SB-AF-41-17, 4-Isopropoxymethyl-N′-(3,5-dibromo-2-hydroxybenzylidene)benzohydrazide], the melting point is 186 to 187 °C.

On to `C#Cc1ccc(/C=N/NC(=O)c2ccc(COC(C)C)cc2)c(O)c1` [SB-AF-41-27, N′-(4-Ethynyl-2-hydroxybenzylidene)-4-(isopropoxymethyl)benzohydrazide], for which the MIC80 against C. albicans is > 16 µg/mL; in the series with C. neoformans (setting [2]), ≤ 0.015 µg/mL.

Regarding `C#Cc1ccc(O)c(/C=N/NC(=O)c2ccc(C3(C(F)(F)F)N=N3)cc2)c1` [SB-AF-43-23, 4-(3-(Trifluoromethyl)-3H-diazirin-3-yl)-N′-(5-ethynyl-2-hydroxybenzylidene) benzohydrazide], the results for the MIC80 in the series with C. albicans, in the series with C. neoformans (setting [2]) and against A. fumigatus were 1 µg/mL (≈ 2.69 µM), 0.007 µg/mL (≈ 0.0188 µM) and 1 µg/mL (≈ 2.69 µM), respectively.

With `CCCOCc1ccc(C(=O)N/N=C/c2cc(Br)ccc2O)cc1` [SB-AF-44-15, 4-Propoxymethyl-N′-(5-bromo-2-hydroxybenzylidene)benzohydrazide], the melting point fell in the range of 175 to 176 °C.

Regarding `CCCOCc1ccc(C(=O)N/N=C/c2cc(Br)cc(Br)c2O)cc1` [SB-AF-44-17, 4-Propoxymethyl-N′-(3,5-dibromo-2-hydroxybenzylidene)benzohydrazide], the melting point is 190 to 192 °C.

As to `C#Cc1ccc(/C=N/NC(=O)c2ccc(COCCC)cc2)c(O)c1` [SB-AF-44-27, N′-(4-Ethynyl-2-hydroxybenzylidene)-4-(propoxymethyl)benzohydrazide], the figures for the MIC80 in the series with C. albicans and in the series on C. neoformans (setting [2]) were > 16 µg/mL and 0.25 µg/mL (≈ 0.743 µM), respectively.

`C#Cc1ccc(/C=N/NC(=O)c2ccc(Br)c(O)c2)c(O)c1` [SB-AF-46-27, 4-Bromo-N′-(4-ethynyl-2-hydroxybenzylidene)-3-hydroxybenzohydrazide]: the MIC80 in the series with C. albicans is > 16 µg/mL; in the series with C. neoformans (setting [2]), 1 µg/mL (≈ 2.78 µM); in the series with A. fumigatus, > 32 µg/mL.
